For series [1], the target named is T1, Glycogen phosphorylase, muscle form (Oryctolagus cuniculus) (UniProt P00489).
T1 sequence (whole entry): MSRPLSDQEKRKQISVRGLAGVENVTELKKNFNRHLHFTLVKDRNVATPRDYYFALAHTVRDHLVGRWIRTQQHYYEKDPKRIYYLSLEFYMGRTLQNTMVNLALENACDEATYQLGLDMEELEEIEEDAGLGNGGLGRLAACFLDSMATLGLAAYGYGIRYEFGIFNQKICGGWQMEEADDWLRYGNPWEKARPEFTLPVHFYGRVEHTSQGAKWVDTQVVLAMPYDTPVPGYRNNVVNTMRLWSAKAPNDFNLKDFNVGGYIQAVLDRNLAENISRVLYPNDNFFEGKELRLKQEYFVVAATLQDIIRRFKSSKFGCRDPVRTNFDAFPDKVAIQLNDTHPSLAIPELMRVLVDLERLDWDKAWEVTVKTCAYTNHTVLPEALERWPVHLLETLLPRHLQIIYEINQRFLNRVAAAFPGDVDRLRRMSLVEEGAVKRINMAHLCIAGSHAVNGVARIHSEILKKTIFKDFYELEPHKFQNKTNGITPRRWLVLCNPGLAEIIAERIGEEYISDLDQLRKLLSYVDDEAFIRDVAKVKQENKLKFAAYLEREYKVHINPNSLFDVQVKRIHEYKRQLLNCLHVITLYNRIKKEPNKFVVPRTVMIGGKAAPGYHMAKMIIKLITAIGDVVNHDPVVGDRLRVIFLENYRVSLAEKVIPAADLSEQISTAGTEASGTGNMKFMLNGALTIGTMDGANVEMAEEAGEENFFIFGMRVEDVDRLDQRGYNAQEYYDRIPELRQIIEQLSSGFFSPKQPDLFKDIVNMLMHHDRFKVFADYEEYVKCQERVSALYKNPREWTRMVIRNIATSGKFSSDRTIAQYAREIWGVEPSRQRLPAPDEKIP
The series can be described thus: Inhibition of rabbit skeletal muscle glycogen phosphorylase-B using glucose-1-phosphate substrate assessed as […] in phosphate release at 1000 uM.

A short description of series [2]: Solubility of compound in water in presence of 20% DMSO. It is filed as physicochemical. The conditions noted are these: buffer.
Series [3] concerns the target T1, Glycogen phosphorylase, muscle form (Oryctolagus cuniculus). In words: Inhibition of rabbit skeletal muscle glycogen phosphorylase-B using glucose-1-phosphate substrate assessed as […] in phosphate release at 250 uM.
For series [4] the target is unchanged. In words: Inhibition of rabbit skeletal muscle glycogen phosphorylase-B using glucose-1-phosphate substrate assessed as […] in phosphate release at 300 uM.

As a reminder, the inhibition is the relative decrease from the control value, in per cent. Take `Cc1ccc(-c2noc(C(c3nc(-c4ccc(C)cc4)no3)[C@@H]3O[C@H](CO)[C@@H](O)[C@H](O)[C@H]3O)n2)cc1`: the inhibition in series [1] worked out at 39%. `OC[C@H]1O[C@@H](C(c2nc(-c3ccc4ccccc4c3)no2)c2nc(-c3ccc4ccccc4c3)no2)[C@H](O)[C@@H](O)[C@@H]1O`: in series [2], the solubility result is listed as “Insoluble”. In addition, in series [3], the inhibition is 38%.

`O=C(NCC(CNC(=O)c1ccccc1)[C@@H]1O[C@H](CO)[C@@H](O)[C@H](O)[C@H]1O)c1ccccc1`: the inhibition in series [1] is 21%. Take `O=C1NCC([C@@H]2O[C@H](CO)[C@@H](O)[C@H](O)[C@H]2O)CN1`: in series [1], the inhibition worked out at 8.5%. On to `O=C(NCC(CNC(=O)c1ccc2ccccc2c1)[C@@H]1O[C@H](CO)[C@@H](O)[C@H](O)[C@H]1O)c1ccc2ccccc2c1`, for which the inhibition in series [4] came out at 44%.
